For 42 molecules, Reduction and ED25 results are on record in ChEMBL document CHEMBL1125480, “Studies on antidiabetic agents. 11. Novel thiazolidinedione derivatives as potent hypoglycemic and hypolipidemic agents” (1992).

Format in all cases: functional
The species named for experiment [1] is Mus musculus. The experiment in a line: Maximum reduction in plasma triglyceride levels in KKA mice at a dosage of 0.005% in diet.
For experiment [2], the species on record is Mus musculus. The experiment in a line: Maximum reduction in blood glucose levels in KKA mice at a dosage of 0.005% in diet.
The species entered for experiment [3] is Mus musculus. The experiment in a line: Maximum reduction in plasma triglyceride levels in KKA mice at a dosage of 0.001% in diet.
The species named for experiment [4] is Mus musculus. In words: Maximum reduction in blood glucose levels in KKA mice at a dosage of 0.001% in diet.
The species entered for experiment [5] is Mus musculus. The experiment in a line: Effective dose to reduce 25% of triglyceride levels in plasma.
Experiment [6] is filed under the species Mus musculus. In words: Effective dose to reduce 25% of glucose levels in blood.

The structures appear in SMILES notation.

Turning to `O=C1NC(=O)C(Cc2ccc(OCc3nc(-c4ccccc4)cs3)cc2)S1` (configuration not stated), the Reduction was found to be 44% in the experiment filed under Mus musculus [1] and 48% in the experiment filed under Mus musculus [2].
Taken in the same sequence, the figures for `Cc1oc(C2CCCCC2)nc1C(O)COc1ccc(CC2SC(=O)NC2=O)cc1` (configuration not stated) were 67% and 49%.
Turning to `Cc1oc(-c2ccc(O)cc2)nc1CCOc1ccc(CC2SC(=O)NC2=O)cc1` (configuration not stated), the Reduction in the experiment listed under Mus musculus [3] is 26%; in the experiment listed under Mus musculus [4], 22%.
Take `O=C1NC(=O)C(Cc2ccc(OCc3nc4ccccc4s3)cc2)S1` (configuration not stated): the Reduction in the experiment filed under Mus musculus [1] and in the experiment listed under Mus musculus [2] was 43% in each case.
On to `CC(C)c1nc(CCOc2ccc(CC3SC(=O)NC3=O)cc2)cs1` (configuration not stated), for which the Reduction in the experiment filed under Mus musculus [1] is 45%; in the experiment listed under Mus musculus [2], 56%.
Taken in the same sequence, the figures for `Cc1nc(CCOc2ccc(CC3SC(=O)NC3=O)cc2)oc1-c1ccccc1` (configuration not stated) were 7% and 18%.
Turning to `Cc1oc(C2(C)CCCCC2)nc1CCOc1ccc(/C=C2\SC(=O)NC2=O)cc1`, the Reduction in the experiment filed under Mus musculus [1] is 9%; in the experiment filed under Mus musculus [2], 24%.
With `CSc1cccc(-c2nc(CCOc3ccc(/C=C4\SC(=O)NC4=O)cc3)c(C)o2)c1`, the Reduction amounted to 58% in the experiment filed under Mus musculus [1] and 52% in the experiment filed under Mus musculus [2].
For `O=C1NC(=O)C(Cc2ccc(OCCc3nc(-c4ccccc4)oc3CO)cc2)S1` (configuration not stated), the Reduction in the experiment filed under Mus musculus [1] is recorded as 39%; in the experiment filed under Mus musculus [2] it was 31%.
Taken in the same sequence, the figures for `Cc1oc(-c2ccco2)nc1COc1ccc(CC2SC(=O)NC2=O)cc1` (configuration not stated) were 35% and 43%.
For `Cc1oc(-c2ccccc2)nc1C(=O)COc1ccc(CC2SC(=O)NC2=O)cc1` (configuration not stated), the Reduction in the experiment listed under Mus musculus [1] is recorded as 67%; in the experiment filed under Mus musculus [2] it was 52%.
Taken in the same sequence, the figures for `CCCc1nc(COc2ccc(CC3SC(=O)NC3=O)cc2)co1` (configuration not stated) were 29% and 12%.
For the molecule `Cc1nc(COc2ccc(CC3SC(=O)NC3=O)cc2)co1` (configuration not stated), the Reduction in the experiment listed under Mus musculus [4] came to 19%; in the experiment listed under Mus musculus [1] it was 1%.
As for `Cc1oc(-c2ccccc2)nc1C(=O)COc1ccc(/C=C2\SC(=O)NC2=O)cc1`, the Reduction in the experiment filed under Mus musculus [1] worked out at 51%; in the experiment listed under Mus musculus [2], 45%.
`O=C1NC(=O)C(Cc2ccc(OCCc3coc(C4CCCCC4)n3)cc2)S1` (configuration not stated): the figures for the Reduction in the experiment filed under Mus musculus [3] and in the experiment listed under Mus musculus [4] were 14% and 31%, respectively. Moreover, the ED25 was 9 mg/kg/day in the experiment filed under Mus musculus [5] and 1 mg/kg/day in the experiment listed under Mus musculus [6] (Mus musculus, Blood).
On to `Cc1nc(C(=O)COc2ccc(CC3SC(=O)NC3=O)cc2)c(C)o1` (configuration not stated), for which the figures for the Reduction in the experiment filed under Mus musculus [1] and in the experiment filed under Mus musculus [2] were 27% and 39%, respectively.
Turning to `Cc1nc(CCOc2ccc(CC3SC(=O)NC3=O)cc2)co1` (configuration not stated), the Reduction in the experiment filed under Mus musculus [3] turned out to be 20%; in the experiment listed under Mus musculus [4], 13%; in the experiment filed under Mus musculus [1], 42%; in the experiment listed under Mus musculus [2], 37%. Moreover, the ED25 is 3 mg/kg/day in the experiment listed under Mus musculus [5] and 5 mg/kg/day in the experiment filed under Mus musculus [6].
For the molecule `O=C1NC(=O)C(Cc2ccc(OCCc3csc(C4CCCCC4)n3)cc2)S1` (configuration not stated), the Reduction is recorded as 33% in the experiment filed under Mus musculus [3] and 43% in the experiment filed under Mus musculus [4]. The ED25 worked out at 3 mg/kg/day in the experiment listed under Mus musculus [5] and 0.8 mg/kg/day in the experiment filed under Mus musculus [6] (Mus musculus, Blood).
`Cc1oc(-c2ccc(Cl)cc2)nc1CCOc1ccc(/C=C2\SC(=O)NC2=O)cc1`: the Reduction in the experiment listed under Mus musculus [1] was found to be 58%; in the experiment filed under Mus musculus [2] it was 54%.
For `Cc1oc(-c2ccccc2)nc1CCCOc1ccc(CC2SC(=O)NC2=O)cc1` (configuration not stated) the same measures were 29% and 21%.
Taken in the same sequence, the figures for `CSc1cccc(-c2nc(CCOc3ccc(CC4SC(=O)NC4=O)cc3)c(C)o2)c1` (configuration not stated) were 67% and 52%.
Regarding `CCc1nc(CCOc2ccc(CC3SC(=O)NC3=O)cc2)cs1` (configuration not stated), the Reduction in the experiment listed under Mus musculus [1] is given as 37%; in the experiment listed under Mus musculus [2], 55%.
For `Cc1oc(-c2ccccc2)nc1COc1ccc(/C=C2\SC(=O)NC2=O)cc1`, the Reduction is listed as 40% in the experiment filed under Mus musculus [1] and 37% in the experiment filed under Mus musculus [2].
On to `Cc1oc(-c2ccccc2Cl)nc1CCOc1ccc(CC2SC(=O)NC2=O)cc1` (configuration not stated), for which the results for the Reduction in the experiment filed under Mus musculus [3] and in the experiment listed under Mus musculus [4] were 57% and 52%, respectively.
Regarding `Cc1oc(CCOc2ccc(CC3SC(=O)NC3=O)cc2)nc1CC(C)C` (configuration not stated), the figures for the Reduction in the experiment filed under Mus musculus [1] and in the experiment listed under Mus musculus [2] were 43% and 53%, respectively.
Taken in the same sequence, the figures for `CCc1oc(CCOc2ccc(CC3SC(=O)NC3=O)cc2)nc1-c1ccccc1` (configuration not stated) were 51% and 46%.
Consider `Cc1oc(CCOc2ccc(CC3SC(=O)NC3=O)cc2)nc1C1CCCCC1` (configuration not stated), for which the Reduction in the experiment filed under Mus musculus [1] came to 51%; in the experiment filed under Mus musculus [2] it was 54%.
For `Cc1nc(COc2ccc(CC3SC(=O)NC3=O)cc2)cs1` (configuration not stated) the same measures were 30% and 19%.
For `Cc1oc(CCOc2ccc(CC3SC(=O)NC3=O)cc2)nc1-c1ccccc1` (configuration not stated) the same measures were 60% and 54%.
`Cc1cccc(-c2nc(CCOc3ccc(CC4SC(=O)NC4=O)cc3)c(C)o2)c1` (configuration not stated): the Reduction came out at 61% in the experiment filed under Mus musculus [3] and 49% in the experiment filed under Mus musculus [4]. In addition, the ED25 in the experiment listed under Mus musculus [5] came to 0.06 mg/kg/day; in the experiment filed under Mus musculus [6] (Mus musculus, Blood), 0.05 mg/kg/day.
Take `CCc1oc(C)nc1CCOc1ccc(CC2SC(=O)NC2=O)cc1` (configuration not stated): the Reduction in the experiment listed under Mus musculus [3] was 0%; in the experiment listed under Mus musculus [4], 15%; in the experiment filed under Mus musculus [1], 45%; in the experiment listed under Mus musculus [2] it was 46%. The ED25 in the experiment filed under Mus musculus [5] was 5 mg/kg/day; in the experiment filed under Mus musculus [6] (Mus musculus, Blood), 3 mg/kg/day.
Consider `Cc1oc(-c2cccs2)nc1CCOc1ccc(/C=C2\SC(=O)NC2=O)cc1`, for which the Reduction in the experiment filed under Mus musculus [1] is recorded as 57%; in the experiment filed under Mus musculus [2], 55%.
For `Cc1oc(-c2ccccc2)nc1CCOc1ccc(/C=C2\SC(=O)NC2=O)cc1`, the Reduction is 65% in the experiment listed under Mus musculus [3] and 55% in the experiment listed under Mus musculus [4]. The ED25 amounted to 0.2 mg/kg/day in the experiment listed under Mus musculus [5] and 0.4 mg/kg/day in the experiment listed under Mus musculus [6] (Mus musculus, Blood).
With `Cc1scnc1CCOc1ccc(CC2SC(=O)NC2=O)cc1` (configuration not stated), the results for the Reduction in the experiment filed under Mus musculus [1] and in the experiment filed under Mus musculus [2] were 45% and 52%, respectively.
In the case of `Cc1nc(C(=O)COc2ccc(/C=C3\SC(=O)NC3=O)cc2)c(C)o1`, the figures for the Reduction in the experiment listed under Mus musculus [1] and in the experiment filed under Mus musculus [2] were 29% and 33%, respectively.
On to `CCc1oc(-c2ccccc2)nc1CCOc1ccc(/C=C2\SC(=O)NC2=O)cc1`, for which the Reduction turned out to be 59% in the experiment filed under Mus musculus [1] and 54% in the experiment listed under Mus musculus [2].
For `O=C1NC(=O)C(Cc2ccc(OCc3csc(-c4cccnc4)n3)cc2)S1` (configuration not stated), the Reduction was found to be 30% in the experiment listed under Mus musculus [1] and 25% in the experiment filed under Mus musculus [2].
For `Cc1nc(CCOc2ccc(/C=C3\SC(=O)NC3=O)cc2)cs1` the same measures were 5% and 34%.
For the molecule `COc1ccc(-c2nc(CCOc3ccc(CC4SC(=O)NC4=O)cc3)c(C)o2)cc1OC` (configuration not stated), the Reduction came out at 54% in the experiment filed under Mus musculus [3] and 52% in the experiment listed under Mus musculus [4]. Besides, the ED25 came out at 0.6 mg/kg/day in the experiment filed under Mus musculus [5] and 0.5 mg/kg/day in the experiment listed under Mus musculus [6] (Mus musculus, Blood).
In the case of `O=C1NC(=O)C(Cc2ccc(OCc3nc4ccccc4o3)cc2)S1` (configuration not stated), the Reduction is given as 24% in the experiment listed under Mus musculus [1] and 35% in the experiment listed under Mus musculus [2].
In the case of `CC1(COc2ccc(CC3SC(=O)NC3=O)cc2)CCCCC1` (configuration not stated) [CIGLITAZONE], the ED25 in the experiment listed under Mus musculus [5] stood at 25 mg/kg/day; in the experiment filed under Mus musculus [6] (Mus musculus, Blood), 31 mg/kg/day.
Taken in the same sequence, the figures for `CCc1ccc(CCOc2ccc(CC3SC(=O)NC3=O)cc2)nc1.Cl` (configuration not stated) [PIOGLITAZONE HYDROCHLORIDE] were 6 mg/kg/day and 6 mg/kg/day.
